From PubChem BioAssay AID2060500 (Molecular Pharmacology Branch, DTP, NCI, 2025)

Tested on: 596521-263-R-J1-PDC complex spheroids, viability % of control
Assay: Anticancer human tumor 596521-263-R-J1-PDC patient-derived soft tissue sarcoma cell line growth inhibition [GQUAD]
Conditions: for IC50: curve of first compound; for viability, T/C: stronger effect = lower value; active = viability on the fitted dose curve at most 10% of control; inactive = the rest
Procedure, shortened: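 Multi-cell-type spheroids of tumor cells with HUVEC and mesenchymal stem cells, treated with drug combinations. Concentrations descend in half-log steps from near clinical Cmax, or from 10 microM where Cmax is unknown; viability read-out.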

[1] = second compound 0.0316 µM, first compound 0.0316 µM
[2] = second compound 0.0316 µM, first compound 0.1 µM
[3] = second compound 0.0316 µM, first compound 0.316 µM
[4] = second compound 0.0316 µM, first compound 1 µM
[5] = second compound 0.0316 µM, first compound 3.16 µM
[6] = second compound 0.0316 µM, first compound 10 µM
[7] = second compound 0.1 µM, first compound 0.0316 µM
[8] = second compound 0.1 µM, first compound 0.1 µM
[9] = second compound 0.1 µM, first compound 0.316 µM
[10] = second compound 0.1 µM, first compound 1 µM
[11] = second compound 0.1 µM, first compound 3.16 µM
[12] = second compound 0.1 µM, first compound 10 µM
[13] = second compound 0.316 µM, first compound 0.0316 µM
[14] = second compound 0.316 µM, first compound 0.1 µM
[15] = second compound 0.316 µM, first compound 0.316 µM
[16] = second compound 0.316 µM, first compound 1 µM
[17] = second compound 0.316 µM, first compound 3.16 µM
[18] = second compound 0.316 µM, first compound 10 µM
[19] = second compound 1 µM, first compound 0.0316 µM
[20] = second compound 1 µM, first compound 0.1 µM
[21] = second compound 1 µM, first compound 0.316 µM
[22] = second compound 1 µM, first compound 1 µM
[23] = second compound 1 µM, first compound 3.16 µM
[24] = second compound 1 µM, first compound 10 µM
[25] = second compound 3.16 µM, first compound 0.0316 µM
[26] = second compound 3.16 µM, first compound 0.1 µM
[27] = second compound 3.16 µM, first compound 0.316 µM
[28] = second compound 3.16 µM, first compound 1 µM
[29] = second compound 3.16 µM, first compound 3.16 µM
[30] = second compound 3.16 µM, first compound 10 µM
[31] = second compound 10 µM, first compound 0.0316 µM
[32] = second compound 10 µM, first compound 0.1 µM
[33] = second compound 10 µM, first compound 0.316 µM
[34] = second compound 10 µM, first compound 1 µM
[35] = second compound 10 µM, first compound 3.16 µM
[36] = second compound 10 µM, first compound 10 µM
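Note: spheroids exposed to drugs for 7 days before viability reading.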
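Throughout, for viability, T/C: 100% = DMSO vehicle control viability.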

CC(=O)O[C@H]1C(=O)[C@@]2(C)[C@H]([C@H](OC(=O)c3ccccc3)[C@]3(O)C[C@H](OC(=O)[C@H](O)[C@@H](NC(=O)c4ccccc4)c4ccccc4)C(C)=C1C3(C)C)[C@]1(OC(C)=O)CO[C@@H]1C[C@@H]2O + CN(C)c1ccc(Nc2c3ccc(NC(=O)CCN4CCCC4)cc3nc3cc(NC(=O)CCN4CCCC4)ccc23)cc1
< 0.0316 µM: IC50 (second compound 0.0316 µM) | IC50 (second compound 0.1 µM) | IC50 (second compound 0.316 µM) | IC50 (second compound 1 µM) | IC50 (second compound 3.16 µM) | IC50 (second compound 10 µM)
inactive: viability, T/C [1] 40.7% | viability, T/C [2] 27.7% | viability, T/C [3] 25.7% | viability, T/C [4] 22.9% | viability, T/C [5] 26.8% | viability, T/C [6] 31.9% | viability, T/C [7] 37.5% | viability, T/C [8] 25.6% | viability, T/C [9] 24.3% | viability, T/C [10] 28% | viability, T/C [11] 23.1% | viability, T/C [12] 26.6% | viability, T/C [13] 37.2% | viability, T/C [14] 27.4% | viability, T/C [15] 25.2% | viability, T/C [16] 29.2% | viability, T/C [17] 29.3% | viability, T/C [18] 25.3% | viability, T/C [19] 38.3% | viability, T/C [20] 29% | viability, T/C [21] 26.5% | viability, T/C [22] 25.2% | viability, T/C [23] 28.3% | viability, T/C [24] 27.5% | viability, T/C [25] 35.6% | viability, T/C [26] 32.1% | viability, T/C [27] 26.9% | viability, T/C [28] 27.1% | viability, T/C [29] 27.3% | viability, T/C [30] 28.2% | viability, T/C [31] 34.3% | viability, T/C [32] 21.7% | viability, T/C [33] 21.4% | viability, T/C [34] 21.5% | viability, T/C [35] 21.6% | viability, T/C [36] 24.9%

CC(C)n1c(=O)n(C)c2cnc3cc(F)c(-c4ccc(OCCCN5CCCCC5)nc4)cc3c21 + Cc1[nH]c2ccc(F)cc2c1-c1nc2c3cccnc3c3ncccc3c2[nH]1
inactive: viability, T/C [1] 100% | viability, T/C [2] 82.2% | viability, T/C [3] 81.5% | viability, T/C [4] 87.1% | viability, T/C [5] 80% | viability, T/C [6] 73.4% | viability, T/C [7] 95% | viability, T/C [8] 112% | viability, T/C [9] 91% | viability, T/C [10] 93.9% | viability, T/C [11] 86% | viability, T/C [12] 64.9% | viability, T/C [13] 106% | viability, T/C [14] 102% | viability, T/C [15] 91.4% | viability, T/C [16] 83.7% | viability, T/C [17] 81.9% | viability, T/C [18] 57.6% | viability, T/C [19] 85% | viability, T/C [20] 89% | viability, T/C [21] 97% | viability, T/C [22] 89.4% | viability, T/C [23] 86.8% | viability, T/C [24] 72.1% | viability, T/C [25] 87.9% | viability, T/C [26] 90.3% | viability, T/C [27] 81.4% | viability, T/C [28] 76.3% | viability, T/C [29] 80.6% | viability, T/C [30] 53% | viability, T/C [31] 74.4% | viability, T/C [32] 78.6% | viability, T/C [33] 79.8% | viability, T/C [34] 79.1% | viability, T/C [35] 62.1% | viability, T/C [36] 50.7%
> 10 µM: IC50 (second compound 0.0316 µM) | IC50 (second compound 0.1 µM) | IC50 (second compound 0.316 µM) | IC50 (second compound 1 µM) | IC50 (second compound 3.16 µM) | IC50 (second compound 10 µM)
